Test results published in article PMC3607207 (ACS combinatorial science, 2012).
Entries after “also recorded” stand apart in the source; their conditions may differ.

Target: mu opioid receptor (Rattus norvegicus, UniProt P33535)
Experiment: competitive radio receptor binding assay, [3H]DAMGO, rat brain membranes
Conditions: 1 mg/ml (14.7 mM) imidazole

Sequence of mu opioid receptor (P33535 whole entry): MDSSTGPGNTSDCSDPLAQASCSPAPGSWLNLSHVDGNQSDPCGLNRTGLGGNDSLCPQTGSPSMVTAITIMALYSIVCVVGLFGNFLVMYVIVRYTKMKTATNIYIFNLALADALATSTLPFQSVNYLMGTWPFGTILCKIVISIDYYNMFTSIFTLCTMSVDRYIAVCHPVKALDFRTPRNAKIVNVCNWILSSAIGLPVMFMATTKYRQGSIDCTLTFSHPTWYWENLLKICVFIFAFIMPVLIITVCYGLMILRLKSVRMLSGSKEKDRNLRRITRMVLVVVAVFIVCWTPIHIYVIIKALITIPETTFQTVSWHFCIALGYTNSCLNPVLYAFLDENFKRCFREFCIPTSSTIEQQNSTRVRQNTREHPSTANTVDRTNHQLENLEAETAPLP

## c1c[nH]cn1 [imidazole]
  effect on binding of 3H-DAMGO to the mu opioid receptor: negligible inhibition; also recorded: No significant effect
